Measured values: PMC7962642, “A Synergic Potential of Antimicrobial Peptides against Pseudomonas syringae pv. actinidiae” (Molecules, 2021)
Converted amounts (≈) assume the structure as drawn. Where two headings read alike, the source gives them in different places. No end group written: not given here.

What was measured:
[1] = tested on: Psa strains; test: Minimal bactericidal concentration (MBC), subculture on peptide-free King's B agar; format: cell-based, Pseudomonas syringae pv. actinidiae
Description: (§1) All strains were obtained from stocks preserved at –80 °C and cultured in King’s B medium (protease peptone, 20.0 g; anhydrous K2HPO4, 1.5 g; glycerol, 10.0 mL; MgSO4·7H2O, 1.5 g; agar, […]; distilled water up to 1.0 L). Individual colonies of each strain were selected and re-streaked two times to ensure purity. Psa strains were isolated in different infected kiwifruit orchards between 2013 and 2017. CFBP7286 was used as Psa biovar 3 reference strain. For the antibiogram assays, pure colonies of all bacterial strains were grown overnight in Muller-Hinton Broth (MHB; Oxoid), at 28 °C and 240 rpm. Bacterial growth was monitored and adjusted to 0.135 optical density at 600 nm (OD600) in a spectrophotometer (Genesys 10uv Scanning, Thermo Scientific). […] For flow cytometry experiments, bacteria were cultured in King’s B broth medium for 20 h, at 25 °C in a shaking incubator at 200 rpm.
(§2) The MIC and MBC were determined for peptides discriminated by the antibiograms as the most efficient, i.e., RW-BP100, CA-M, 3.1, and BP100. […] In this assay, additional concentrations to those used in the antibiogram analysis were included in order to obtain more accurate results. Sterile 96-well microplates were filled with 150 µL of peptide and bacterial solution in a 1:1 ratio, leading to final concentrations of peptides equal to 0.25, 0.75, 1.6, 3.4, 6.2, 10, 25, 50, and 100 µM. As negative control a bacterial-free solution and sterile distilled water was used, and positive control with chlortetracycline to a final concentration of 25 µM was used. Microplates were incubated at 25 °C and 130 rpm and OD600 was measured hourly for 24 h, with 30 s vigorous shaking before each reading. The experiment was repeated three distinct times with different fresh bacterial colonies.
(§3) Data from bacterial growth curves were analyzed to determine IC50 values with two-way ANOVA and Tukey tests (p < 0.05). MIC values were set as the peptide lowest concentrations that reduced bacterial growth.

[2] = tested on: Psa strains; test: IC50 from bacterial growth curves; format: cell-based, Pseudomonas syringae pv. actinidiae; conditions: based on bacterial growth curves, read-out: half-maximal inhibitory concentration (IC50)
Description: as §2, §3

[3] = tested on: Psa strains; test: Minimal inhibitory concentration (MIC), microplate growth in MHB; format: cell-based, Pseudomonas syringae pv. actinidiae
Description: as §1, §2, §3

[4] = tested on: Nicotiana tabacum cv. 'Havana' leaves; test: AMP toxicity on tobacco leaves by syringe infiltration; format: in vivo; conditions: AMP alone in PBS at assay concentration
Description: To assess the HR, the Psa reference CFBP7286 strain was used. CFBP7286 cells were more exposed to the AMPs (doses and periods of exposure) than those used on the flow cytometry and the CFUs analyzes; from individual effects of AMPs on the reference CFBP7286 strain, the HR was assessed. Tobacco plants (Nicotiana tabacum cv. ‘Havana’) were sown in plant pots of 1 L in peat substrate (Siro, Mira, Portugal). Plants were grown for 8 weeks in a growth chamber with a controlled temperature at 25 °C ± 2 and relative humidity at 50% ± 5. Psa infiltration on tobacco plants for HR was performed according to Stefani and Loreti using a syringe tip to inoculate 1 mL of bacterial suspension after 1 h of AMPs treatments in the abaxial side of the leaves. PBS was used as a negative control and Psa CFBP7286 at the same concentration and diluted in PBS for 1 h as the treatment was infiltrated as a positive control for HR. The AMPs at the assay concentration were prepared in PBS and infiltrated, also as a negative control of the treatment. The development of HR was monitored within 24 and 48 h post infiltration (hpi). Three tobacco plants, and three leaves of each plant, were used in three independent experiments.

[5] = tested on: Pseudomonas syringae pv. actinidiae (Psa) strains; test: Antibiogram assay (peptide drop on inoculated MH agar); format: cell-based; parameters: key: “ns” means the strain was not susceptible to the peptide in the tested concentration range; conditions: 1 µL drop on MH agar, 25 °C, 24 h, tested 0.4-200 µM
Description: All strains were obtained from stocks preserved at –80 °C and cultured in King’s B medium (protease peptone, 20.0 g; anhydrous K2HPO4, 1.5 g; glycerol, 10.0 mL; MgSO4·7H2O, 1.5 g; agar, […]; distilled water up to 1.0 L). Individual colonies of each strain were selected and re-streaked two times to ensure purity. Psa strains were isolated in different infected kiwifruit orchards between 2013 and 2017. CFBP7286 was used as Psa biovar 3 reference strain. For the antibiogram assays, pure colonies of all bacterial strains were grown overnight in Muller-Hinton Broth (MHB; Oxoid), at 28 °C and 240 rpm. Bacterial growth was monitored and adjusted to 0.135 optical density at 600 nm (OD600) in a spectrophotometer (Genesys 10uv Scanning, Thermo Scientific). […]
All six AMPs, BP100, RW-BP100, CA-M, D4E1, 3.1, and Dhvar-5 (Table 3), were evaluated by antibiogram assays to determine the most promising peptides against the selected bacterial strains. […]
For the pre-incubation, bacterial cultures were inoculated in Muller-Hinton (MH; Oxoid) agar (1.5%) medium by spreading 1 mL of each culture, removing the excess after 1 min and allowing drying for 15 min. […] After the incubation period, plate images were acquired on Gel Doc (BioRad, Hercules, CA, USA) and AMP activity was determined by no growth on drop site for each concentration. […]

[6] = tested on: Psa CFBP7286; format: cell-based; conditions: 1 h treatment; alone or combined with 3.1 at equal concentrations
Description: The number of viable bacteria cells of CFBP7286 strains was determined by CFU counting, using bacteria inocula exposed to the same AMPs (doses and periods of exposure) than those used on the flow cytometry assays. In the individual evaluation of BP100, CA-M, and 3.1 AMPs as well as the mixtures BP100:3.1 and CA-M:3.1, CFUs were determined by the drop method in the plate. All treated samples and controls were subjected to 10 serial ^1/10 dilutions in sterile PBS and 10 μL of each dilution was cultured on King’s B agar (1.5%) plates, with further incubation at 25 °C for 24 h. After the incubation time, plates were recorded in a GelDoc (BioRad) and colonies were counted for the last dilution with bacterial growth. This experiment was performed in three biological and temporal replicates.

[7] = tested on: tobacco leaf; conditions: cited from earlier work
Description: The assays on tobacco plants are often used to analyze the toxicity effects of AMPs [[29],[30],[49],[5 ...

[8] = reference strain CFBP7286, subculture on peptide-free King's B agar, 25 °C, 24 h
[9] = strain AL114b, subculture on peptide-free King's B agar, 25 °C, 24 h
[10] = strain AL115, subculture on peptide-free King's B agar, 25 °C, 24 h
[11] = strain Fv62, subculture on peptide-free King's B agar, 25 °C, 24 h
[12] = strain P85, subculture on peptide-free King's B agar, 25 °C, 24 h
[13] = strain VN29, subculture on peptide-free King's B agar, 25 °C, 24 h
[14] = strain VV10, subculture on peptide-free King's B agar, 25 °C, 24 h
[15] = strain VV112, subculture on peptide-free King's B agar, 25 °C, 24 h
[16] = summary over the eight Psa strains (abstract)
[17] = all strains (for CA-M except P85 and VN29), repeated three times
[18] = reference strain CFBP7286, MHB, 96-well, 25 °C, 130 rpm, OD600 hourly for 24 h, repeated three times
[19] = strain AL114b, MHB, 96-well, 25 °C, 130 rpm, OD600 hourly for 24 h, repeated three times
[20] = strain AL115, MHB, 96-well, 25 °C, 130 rpm, OD600 hourly for 24 h, repeated three times
[21] = strain Fv62, MHB, 96-well, 25 °C, 130 rpm, OD600 hourly for 24 h, repeated three times
[22] = strain P85, MHB, 96-well, 25 °C, 130 rpm, OD600 hourly for 24 h, repeated three times
[23] = strain VN29, MHB, 96-well, 25 °C, 130 rpm, OD600 hourly for 24 h, repeated three times
[24] = strain VV10, MHB, 96-well, 25 °C, 130 rpm, OD600 hourly for 24 h, repeated three times
[25] = strain VV112, MHB, 96-well, 25 °C, 130 rpm, OD600 hourly for 24 h, repeated three times

Molecule	MBC [1, 8] [µM]	MBC [1, 9] [µM]	MBC [1, 10] [µM]	MBC [1, 11] [µM]	MBC [1, 12] [µM]	MBC [1, 13] [µM]	MBC [1, 14] [µM]	MBC [1, 15] [µM]	MBC [1, 16] [µM]	IC50 [2, 17] [µM]	MIC [3, 18] [µM]	MIC [3, 19] [µM]	MIC [3, 20] [µM]	MIC [3, 21] [µM]	MIC [3, 22] [µM]	MIC [3, 23] [µM]	MIC [3, 24] [µM]	MIC [3, 25] [µM]	AMP toxicity on tobacco plants [4]	further results
KWKLFKKIGAVLKVL-NH2 [CA-M]	6.2	10	6.2	10	6.2	6.2	6.2	6.2	3.4 to 10	~2	3.4	3.4	3.4	3.4	6.2	6.2	3.4	3.4	absence/low toxicity	IC50 ([2]; strain P85): ~4 µM; IC50 ([2]; strain VN29): ~4 µM; MIC [3, 16]: 3.4 to 6.2 µM
RRLFRRILRWL-NH2 [RW-BP100]	6.2	6.2	6.2	6.2	6.2	6.2	6.2	6.2	–	–	3.4	6.2	6.2	6.2	6.2	6.2	6.2	6.2	–	–
LLLFLLKKRKKRKY-NH2 [Dhvar-5]	–	–	–	–	–	–	–	–	–	–	–	–	–	–	–	–	–	–	–	antibiogram inhibitory concentration ([5]; strain VC104b): ns; antibiogram inhibitory concentration ([5]; strain VN29): ns
KKLLKWLLKLL-NH2 [3.1]	25	25	10	25	25	25	25	25	–	–	10	25	10	10	25	10	10	10	absence/low toxicity	–
CC[C@H](C)[C@H](NC(=O)[C@H](CCCCN)NC(=O)[C@H](CCCCN)NC(=O)[C@H](Cc1ccccc1)NC(=O)[C@H](CC(C)C)NC(=O)[C@H](CCCCN)NC(=O)[C@@H](N)CCCCN)C(=O)N[C@@H](CC(C)C)C(=O)N[C@@H](CCCCN)C(=O)N[C@@H](Cc1ccc(O)cc1)C(=O)N[C@@H](CC(C)C)C(N)=O [BP100, reference compound]	3.4 (≈ 4.83 µg/mL)	3.4 (≈ 4.83 µg/mL)	3.4 (≈ 4.83 µg/mL)	10 (≈ 14.2 µg/mL)	6.2 (≈ 8.81 µg/mL)	6.2 (≈ 8.81 µg/mL)	6.2 (≈ 8.81 µg/mL)	10 (≈ 14.2 µg/mL)	3.4 to 10	~2	3.4 (≈ 4.83 µg/mL)	3.4 (≈ 4.83 µg/mL)	3.4 (≈ 4.83 µg/mL)	3.4 (≈ 4.83 µg/mL)	3.4 (≈ 4.83 µg/mL)	3.4 (≈ 4.83 µg/mL)	3.4 (≈ 4.83 µg/mL)	3.4 (≈ 4.83 µg/mL)	absence/low toxicity	lethal concentration of BP100 by CFUs [6]: 2 µM; tobacco leaf lesions ([7]; at 50 µM): 4 mm; tobacco leaf lesions ([7]; at 250 µM): 12.5 mm
